Measured values from ChEMBL document CHEMBL3885861, “Open TG-GATES”.

Species: Rattus norvegicus
Assay: Open TG-GATES - Regimen: Single
Format: toxicity, organism-based, Sprague-Dawley
Set-up: regimen Single, gender Male, age 6 weeks
Conditions: in vivo, po, 100 mg/kg, route gavage, dose level Middle; for APTT / Bas / Eos / Fbg / Hb / Ht / Lym / MCH / MCHC / MCV / Mono / Neu / PT / Plat / RBC / Ret / WBC: tissue Blood; for KIDNEY_L / KIDNEY_R / KIDNEY_TOTAL: tissue Kidney; for LIVER: tissue Liver; for A/G / ALP / ALT / AST / BUN / CRE / Ca / Cl / DBIL / GLC / IP / K / LDH / Na / PL / RALB / TBIL / TC / TG / TP / gamma-GTP: tissue Plasma

## Cc1ccc(C)c(OCCCC(C)(C)C(=O)O)c1 [GEMFIBROZIL]
3 h
  TERMINAL_BW: 221.2 g
  APTT: 15.4 s
  Bas: 0%
  Eos: 0.8%
  Fbg: 283.2 mg/dL
  Hb: 13.4 g/dL
  Ht: 39.6%
  Lym: 78.2%
  MCH: 21.5 pg
  MCHC: 33.8%
  MCV: 63.4 fL
  Mono: 3.2%
  Neu: 17.4%
  PT: 12.4 s
  Plat: 116.9 x10_4/uL
  RBC: 624.4 x10_4/ul
  Ret: 7.2%
  WBC: 76.9 x10_2/uL
  KIDNEY_L: 1 g
  KIDNEY_R: 1 g
  KIDNEY_TOTAL: 1.9 g
  LIVER: 9.4 g
  A/G: 0.8
  ALP: 1811 IU/L
  ALT: 47.8 IU/L
  AST: 80.8 IU/L
  BUN: 11.8 mg/dL
  CRE: 0.2 mg/dL
  Ca: 11.4 mg/dL
  Cl: 104.8 meq/L
  DBIL: 0.068 mg/dL
  GLC: 177 mg/dL
  IP: 10.2 mg/dL
  K: 4.3 meq/L
  LDH: 68.8 IU/L
  Na: 140.6 meq/L
  PL: 174.2 mg/dL
  RALB: 2.5 g/dL
  TBIL: 0.072 mg/dL
  TC: 88 mg/dL
  TG: 155.6 mg/dL
  TP: 5.5 g/dL
  gamma-GTP: 1.2 IU/L
6 h
  TERMINAL_BW: 224.5 g
  APTT: 14.9 s
  Bas: 0%
  Eos: 0.8%
  Fbg: 297 mg/dL
  Hb: 13.9 g/dL
  Ht: 40.4%
  Lym: 76.2%
  MCH: 21.1 pg
  MCHC: 34.4%
  MCV: 61.2 fL
  Mono: 2.8%
  Neu: 19.4%
  PT: 12 s
  Plat: 124.5 x10_4/uL
  RBC: 659.6 x10_4/ul
  Ret: 7.6%
  WBC: 87.8 x10_2/uL
  KIDNEY_L: 0.9 g
  KIDNEY_R: 0.9 g
  KIDNEY_TOTAL: 1.9 g
  LIVER: 8.7 g
  A/G: 0.9
  ALP: 1550.4 IU/L
  ALT: 42.4 IU/L
  AST: 69.6 IU/L
  BUN: 9.8 mg/dL
  CRE: 0.2 mg/dL
  Ca: 11.3 mg/dL
  Cl: 107.2 meq/L
  DBIL: 0.072 mg/dL
  GLC: 181.2 mg/dL
  IP: 10.7 mg/dL
  K: 4.2 meq/L
  LDH: 61.2 IU/L
  Na: 142 meq/L
  PL: 158.2 mg/dL
  RALB: 2.7 g/dL
  TBIL: 0.056 mg/dL
  TC: 83.4 mg/dL
  TG: 89.2 mg/dL
  TP: 5.5 g/dL
  gamma-GTP: 1 IU/L
9 h
  TERMINAL_BW: 221.6 g
  APTT: 16 s
  Bas: 0%
  Eos: 0.8%
  Fbg: 274.2 mg/dL
  Hb: 13.8 g/dL
  Ht: 39.9%
  Lym: 68.2%
  MCH: 21.4 pg
  MCHC: 34.6%
  MCV: 62 fL
  Mono: 2.8%
  Neu: 27.4%
  PT: 12.1 s
  Plat: 125.1 x10_4/uL
  RBC: 643.8 x10_4/ul
  Ret: 7%
  WBC: 83.1 x10_2/uL
  KIDNEY_L: 1 g
  KIDNEY_R: 0.9 g
  KIDNEY_TOTAL: 1.9 g
  LIVER: 8 g
  A/G: 0.9
  ALP: 1612 IU/L
  ALT: 41.8 IU/L
  AST: 70 IU/L
  BUN: 10.8 mg/dL
  CRE: 0.2 mg/dL
  Ca: 11 mg/dL
  Cl: 106.8 meq/L
  DBIL: 0.082 mg/dL
  GLC: 186.8 mg/dL
  IP: 11 mg/dL
  K: 4.1 meq/L
  LDH: 53.4 IU/L
  Na: 142.8 meq/L
  PL: 131.2 mg/dL
  RALB: 2.6 g/dL
  TBIL: 0.054 mg/dL
  TC: 67.6 mg/dL
  TG: 59 mg/dL
  TP: 5.5 g/dL
  gamma-GTP: 1.2 IU/L
24 h
  TERMINAL_BW: 225.5 g
  APTT: 14.8 s
  Bas: 0%
  Eos: 0.6%
  Fbg: 269.6 mg/dL
  Hb: 13.8 g/dL
  Ht: 39.8%
  Lym: 83.4%
  MCH: 21.8 pg
  MCHC: 34.7%
  MCV: 62.9 fL
  Mono: 2.2%
  Neu: 12.8%
  PT: 12.3 s
  Plat: 115.1 x10_4/uL
  RBC: 633.8 x10_4/ul
  Ret: 6.7%
  WBC: 74 x10_2/uL
  KIDNEY_L: 0.9 g
  KIDNEY_R: 0.9 g
  KIDNEY_TOTAL: 1.8 g
  LIVER: 10.4 g
  A/G: 0.9
  ALP: 1796.8 IU/L
  ALT: 43.6 IU/L
  AST: 68.2 IU/L
  BUN: 15.8 mg/dL
  CRE: 0.2 mg/dL
  Ca: 11.3 mg/dL
  Cl: 105 meq/L
  DBIL: 0.072 mg/dL
  GLC: 196.8 mg/dL
  IP: 7.9 mg/dL
  K: 4.1 meq/L
  LDH: 56.4 IU/L
  Na: 141.6 meq/L
  PL: 125.2 mg/dL
  RALB: 2.7 g/dL
  TBIL: 0.04 mg/dL
  TC: 62.6 mg/dL
  TG: 69 mg/dL
  TP: 5.5 g/dL
  gamma-GTP: 1.2 IU/L
